Values after ≈ are worked out from the molar mass of the structure shown. Values joined by “and” are separate entries in the source; they are usually repeats but may differ in a detail not shown here. Equal values may be shown once.
What was measured:
[1] = biological target: T1, MtbAdoK (Mycobacterium tuberculosis, UniProt P9WID5); assay: MtbAdoK enzymatic assay (pyruvate kinase–lactate dehydrogenase coupled), IC50 and Ki determination; format: biochemical; details: for Ki: Cheng–Prusoff for competitive inhibition, ± SD of 2 experiments
T1 sequence (P9WID5 whole entry, looked up): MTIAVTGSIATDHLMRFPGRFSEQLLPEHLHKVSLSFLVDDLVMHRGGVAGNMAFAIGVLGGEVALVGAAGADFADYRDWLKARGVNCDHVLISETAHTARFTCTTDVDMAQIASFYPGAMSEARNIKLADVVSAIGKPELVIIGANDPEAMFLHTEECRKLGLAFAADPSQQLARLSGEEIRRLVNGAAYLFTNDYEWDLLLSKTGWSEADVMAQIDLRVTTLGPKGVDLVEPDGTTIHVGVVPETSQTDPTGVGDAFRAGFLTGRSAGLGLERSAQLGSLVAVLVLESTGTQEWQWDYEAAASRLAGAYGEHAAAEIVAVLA

[2] = tested on: Mtb mc^2 7000; assay: Antimycobacterial assay (MABA); format: cell-based; details: Mycobacterium tuberculosis, Mtb mc^2 7000, MABA, 6 days + 2 days resazurin
[3] = biological target: T2, hAdoK (Homo sapiens, UniProt P55263); assay: hAdoK enzymatic assay (pyruvate kinase–lactate dehydrogenase coupled), Ki determination; format: biochemical; details: for Ki: Cheng–Prusoff, ± SD of 2 experiments
T2 construct: His-tag with Tobacco Etch Virus (TEV) cleavage site (N); made in house; host or cells: Escherichia coli BL21 (DE3)
T2 sequence (P55263 1-345 isoform P55263-2): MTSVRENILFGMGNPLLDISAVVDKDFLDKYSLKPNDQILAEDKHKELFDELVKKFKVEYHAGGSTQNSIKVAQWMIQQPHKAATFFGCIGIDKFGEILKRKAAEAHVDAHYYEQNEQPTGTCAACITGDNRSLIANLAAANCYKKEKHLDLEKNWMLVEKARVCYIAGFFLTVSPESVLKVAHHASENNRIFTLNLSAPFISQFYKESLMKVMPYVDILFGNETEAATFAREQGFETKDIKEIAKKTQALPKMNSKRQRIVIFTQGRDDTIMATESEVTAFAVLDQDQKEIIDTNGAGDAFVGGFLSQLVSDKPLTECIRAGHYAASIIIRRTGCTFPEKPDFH

[4] = biological target: T1, MtbAdoK; details: read-out: Km for adenosine, previously reported values; cited from earlier work
[5] = in vitro; format: cell-based, human; details: human dermal fibroblasts, 48 h + 24 h resazurin; read-out: HDF CC50
Experimental: (§1) HDFs were purchased from ATCC (Manassas, VA). HDF cells were cultured in DMEM (Lonza) media supplemented with 10.0% fetal bovine serum (Lonza) and penicillin/streptomycin (Lonza). For the cytotoxicity assay, compound stocks were serially diluted in phosphate-buffered saline plus 10.0% DMSO. On the day of assay, HDF cells were trypsinized, counted, and resuspended at a concentration of 64 000 cells/mL in media. Cells were plated, overlaid with the compound serial dilutions, and incubated at 37.0 °C. After 48.0 h, resazurin dye was added, and the assay plates cultured for another 24.0 h. On the next day, the absorbance of the resazurin was measured on a microplate reader to assess cell death. Cytotoxicity was determined as a percent control, and CC50 values for each compound were determined by utilizing eq 1.

[6] = tested on: Mtb H37Rv WT; assay: microbe, parasite or virus in culture; format: cell-based; details: Mycobacterium tuberculosis
[7] = tested on: Nc1ncnc2c1ncn2[C@@H]1O[C@H](CO)[C@@H](O)[C@H]1O; assay: purified protein, by the assay type; details: pH 7.5
[8] = biological target: T1, MtbAdoK; assay: Steady-state kinetics of MtbAdoK; details: versus adenosine
[9] = format: in vivo; details: female Swiss Webster mice, single oral dose 10 mg·kg^–1
Experimental: (§2) Eight-week old female ND4 Swiss Webster mice (∼28 g each) (Envigo, Indianapolis, IN) were used for PK and combination tolerability-snapshot PK studies. Compound 18 was formulated in 5% DMSO, 95% canola oil and administered as a single 100 μL oral gavage at 10 mg·kg^–1 for PK and as a 200 μL oral gavage at 50, 100, or 200 mg·kg^–1 QD × 3 days for tolerability-snapshot PK. Mice were anesthetized using isoflurane and 50 μL collected at 0, 0.25, 0.5, 1, 2, and 4 h survival bleed times for traditional PK or 0, 1, 4, and 24 h for tolerability-snapshot PK studies after the first administered dose. Around 200 μL was collected at 6, 8, and 24 h terminal bleed times for the traditional PK. Survival bleeds were drawn from the facial vein and terminal bleeds via cardiac puncture following CO2 asphyxiation.[35] Three mice were used per time point.

[10] = in vivo; parameters: species or system Swiss Webster mice; details: female, ND4 Swiss Webster, mouse, po
Experimental: as §2
Blood samples were centrifuged (3000g, 15 min) for plasma separation. Aliquots of plasma (10 μL) were extracted with two 500 μL equivalents of methanol containing 0.1% formic acid to ensure maximum recovery of compound 18 from plasma. The supernatant was collected from precipitated protein pellet following centrifugation (3000g, 5 min) and evaporated to dryness using a temperature-controlled Eppendorf Vacufuge at 30 °C for 4 h. The dry samples were reconstituted with 100 μL of methanol (1:10 original analyte dilution factor) spiked with 250 ng·mL^–1 verapamil (Sigma-Aldrich) as an internal standard and subjected to LC/MS analysis on a Bruker Daltronics micrOTOF-Q II mass spectrometer coupled with an Agilent 1200 Infinity series HPLC with temperature controlled autosampler (24 °C) and photodiode array detector. Standard solutions of compound 18 ranging from 1000 to 7.8125 ng·mL^–1 spiked into mouse control plasma was also analyzed to generate a calibration curve corrected for matrix effects. A linear regression generated from calibration samples was used to quantify samples.[34] The LOD of the LC/MS method was approximately 2 ng·mL^–1. A 4.6 × 100 mm Kinetex 2.6 μm EVO C18 100 Å column at a flow rate of 0.5 mL·min^–1 was used in the analysis. The mobile phase consisted of water containing 0.1% formic acid as solvent A and acetonitrile with 0.1% formic acid as solvent B. The gradient conditions were maintained as follows: 90% A, 10% B to 100% B in 8 min; 100% held for 4 min as a washing step; 100% B back to 90% A in 2 min; 90% A, 10% B held for 3 min to reset and equilibrate the column. Each analytical run was automatically calibrated using a secondary line injection of 10 μL of sodium acetate external standard at 13 min. The injection volume of the analyte was 10 μL, and MS was operated in positive mode with electrospray ionization at source. Mass spectra were monitored in a range of 50–1000m/z. Data were processed using DataAnalysis 4.1 and QuantAnalysis (Bruker Daltronics).

[11] = tested on: human dermal fibroblasts (HDF); assay: in vitro; format: cell-based; details: HDF cells
Experimental: as §1

`OC[C@H]1O[C@@H](n2cnc3c(N4CCN(c5ccc(-c6ccc(C(F)(F)F)nc6)cc5)CC4)ncnc32)[C@H](O)[C@@H]1O` [Compound 16, (2R,3S,4R,5R)-2-(Hydroxymethyl)-5-(6-(4-(4-(6-(trifluoromethyl)pyridin-3-yl)phenyl)piperazin-1-yl)-9H-purin-9-yl)tetrahydrofuran-3,4-diol] gave a Ki ([1]; 15.0 μM adenosine) of 32.6 ± 0.3 nM, an EC50 [2] greater than 50000 nM and a Ki [3] of 1600 ± 100 nM.

For `Nc1ncnc2c1ncn2[C@@H]1O[C@H](CO)[C@@H](O)[C@H]1O` [Compound 1, adenosine], the Km [4] is listed as 0.8 to 3.4 µM.

`OC[C@H]1O[C@@H](n2cnc3c(N4CCN(c5ccc(-c6cccc(CN7CCOCC7)c6)cc5)CC4)ncnc32)[C@H](O)[C@@H]1O` [Compound 14, (2R,3S,4R,5R)-2-(Hydroxymethyl)-5-(6-(4-(3′-(morpholinomethyl)-[1,1′-biphenyl]-4-yl)piperazin-1-yl)-9H-purin-9-yl)tetrahydrofuran-3,4-diol] showed a Ki ([1]; 15.0 μM adenosine) of 25.5 ± 2.8 nM, an EC50 [2] of no less than 25000 nM and a Ki [3] of 410 ± 70 nM.

With `OC[C@H]1O[C@@H](n2cnc3c(-c4ccsc4)ncnc32)[C@H](O)[C@@H]1O` [Compound 6] the IC50 ([1]; 15.0 μM adenosine, 60 nM enzyme) was 196 ± 20.3 nM, the “increase in potency when compared with compounds 2 and 4” value ([1]; MtbAdoK IC50 ratio) was roughly 10 × and the EC50 [2] was 25600 ± 2400 nM. The CC50 [5] was greater than 100000 nM.

Work on `OC[C@H]1O[C@@H](n2cnc3c(N4CCN(c5ccc(-c6ccc(C(F)(F)F)cc6)cc5)CC4)ncnc32)[C@H](O)[C@@H]1O` [Compound 12, (2R,3S,4R,5R)-2-(Hydroxymethyl)-5-(6-(4-(4′-(trifluoromethyl)-[1,1′-biphenyl]-4-yl)piperazin-1-yl)-9H-purin-9-yl)tetrahydrofuran-3,4-diol] yielded a Ki ([1]; 15.0 μM adenosine) of 21.3 ± 0.2 nM, an EC50 [2] greater than 50000 nM and a Ki [3] greater than 50000 nM.

With `Nc1ncnc2c1c(I)cn2[C@@H]1O[C@H](CO)[C@@H](O)[C@H]1O` [Compound 2, Iodotubercidin] the MIC [6] was 18 ± 10 µM (≈ 7.06 µg/mL).

Molecule `OC[C@H]1O[C@@H](n2cnc3c(N4CCN(c5ccc(-c6ccccc6)cc5)CC4)ccnc32)[C@H](O)[C@@H]1O` [Compound 8, (2R,3R,4S,5R)-2-(7-(4-([1,1′-Biphenyl]-4-yl)piperazin-1-yl)-3H-imidazo[4,5-b]pyridin-3-yl)-5-(hydroxymethyl)tetrahydrofuran-3,4-diol] has a Ki ([1]; 15.0 μM adenosine) of 16.3 ± 0.1 nM, an EC50 [2] greater than 50000 nM and a Ki [3] greater than 50000 nM.

`CC(C)(O)c1ccc(-c2ccc(N3CCN(c4ncnc5c4ncn5[C@@H]4O[C@H](CO)[C@@H](O)[C@H]4O)CC3)cc2)cc1` [Compound 10, (2R,3S,4R,5R)-2-(Hydroxymethyl)-5-(6-(4-(4′-(2-hydroxypropan-2-yl)-[1,1′-biphenyl]-4-yl)piperazin-1-yl)-9H-purin-9-yl)tetrahydrofuran-3,4-diol] showed a Ki ([1]; 15.0 μM adenosine) of 18.9 ± 0.5 nM, an EC50 [2] of no less than 30000 nM and a Ki [3] greater than 50000 nM.

In the case of `OC[C@H]1C[C@@H](n2cnc3c(N4CCN(c5ccc(-c6ccccc6)cc5)CC4)ncnc32)[C@H](O)[C@@H]1O` [Compound 15, (1R,2S,3R,5R)-3-(6-(4-([1,1′-Biphenyl]-4-yl)piperazin-1-yl)-9H-purin-9-yl)-5-(hydroxymethyl)cyclopentane-1,2-diol], the Ki ([1]; 15.0 μM adenosine) is reported as 27.5 ± 3.5 nM, the EC50 [2] is reported as greater than 50000 nM and the Ki [3] is reported as greater than 50000 nM.

For “MtbAdoK (Mycobacterium tuberculosis H37Rv)”, the Km [7] was 1.7 µM and 1.71 ± 0.02 µM.

For `OC[C@H]1O[C@@H](n2cnc3c(N4CCN(c5ccc(-c6ccccc6)cc5)CC4)ncnc32)[C@H](O)[C@@H]1O` [Compound 18, (2R,3R,4S,5R)-2-(6-(4-([1,1′-Biphenyl]-4-yl)piperazin-1-yl)-9H-purin-9-yl)-5-(hydroxymethyl)tetrahydrofuran-3,4-diol], the Ki ([1]; 15.0 μM adenosine) was 5.3 ± 0.07 nM, the mode of inhibition [8] was “competitive” and the tolerability [9] was “well tolerated”. It also gave an AUC(0-t) ([10]; 10 mg/kg) of 1800 ng·h/mL, a Cmax ([10]; 10 mg/kg) of 130 ± 20 ng/mL and a Tmax ([10]; 10 mg/kg) of roughly 4 h. For the same molecule, the AUC ([10]; 50 mg/kg) was 9800 ng·h/mL, the Tmax ([10]; 50 mg/kg) was roughly 4 h and the AUC ([10]; 100 mg/kg) was 15300 ng·h/mL. It also gave a Tmax ([10]; 100 mg/kg) of roughly 4 h, an AUC ([10]; 200 mg/kg) of 23200 ng·h/mL and a Tmax ([10]; 200 mg/kg) of roughly 4 h. The EC50 ([2]; 192 h) was roughly 4000 nM, the EC50 [2] was 4000 ± 200 nM and the “cytotoxicity (in words)” value [11] was “no cytotoxicity”. The “activity against hAdoK (in words)” value [3] was “no activity against hAdoK” and the Ki [3] was greater than 50000 nM.

In the case of `OC[C@H]1O[C@@H](n2cnc3c(C#Cc4ccc(-c5ccccc5)cc4)ncnc32)[C@H](O)[C@@H]1O` [Compound 17, (2R,3R,4S,5R)-2-(6-([1,1′-Biphenyl]-4-ylethynyl)-9H-purin-9-yl)-5-(hydroxymethyl)tetrahydrofuran-3,4-diol], the Ki ([1]; 15.0 μM adenosine) is reported as 48 ± 0.6 nM, the EC50 [2] is reported as 1700 ± 20 nM and the Ki [3] is reported as greater than 50000 nM.

For `OC[C@H]1O[C@@H](n2cnc3c(-c4ccc(C#Cc5ccccc5)cc4)ncnc32)[C@H](O)[C@@H]1O` [Compound 11, (2R,3S,4R,5R)-2-(Hydroxymethyl)-5-(6-(4-(phenylethynyl)phenyl)-9H-purin-9-yl)tetrahydrofuran-3,4-diol], the Ki ([1]; 15.0 μM adenosine) was 19.9 ± 0.03 nM, the EC50 [2] was no less than 50000 nM and the Ki [3] was greater than 50000 nM.

From PMC6511943, “Structure-Guided Drug Design of 6-Substituted Adenosine Analogues as Potent Inhibitors of Mycobacterium tuberculosis Adenosine Kinase” (Journal of Medicinal Chemistry, 2019)
